According to US20220401377A1, “COMPOSITION FOR PREVENTING AND/OR TREATING NEURODEGENERATIVE DISORDERS” (ICHIMARU PHARCOS CO., LTD., priority 2019, published 2022):

What was measured:
[1] = test system: mouse model of memory impairment; test: Y-shaped maze test in scopolamine mouse model of memory impairment; type: in vivo; details: ICR mice, scopolamine 3 mg/kg i.p., Y-shaped maze on day 7
Protocol: The memory-improving effect of araliadiol was confirmed by administering (orally by sonde) a composition containing arariadiol (a compound shown in Formula I) to a mouse model of memory impairment.
Experimental methods are described below. The following groups of ICR mice (male, 7 weeks old/purchased from SLC Japan) were established. The mice in each group, except for the untreated group, were treated with the composition orally administered by sonde and scopolamine administered intraperitoneally (i.p.). The composition contains a predetermined amount of araliadiol in distilled water. Scopolamine was administered at a dose of 3 mg per kg of mice to cause memory impairment in mice. […] For groups other than the untreated group, distilled water or the composition was administered daily from day 0 to day 6 (seven doses of the composition), with day 0 being the first day of administration of distilled water or the composition. On the 7th day, all groups of mice were tested in a Y-shaped maze test. Scopolamine was administered to all groups of mice except the untreated group 30 minutes before the start of the Y-shaped maze test. • Untreated group: 15 ICR mice that were treated with distilled water containing no araliadiol, but not with scopolamine. • Control group: 16 ICR mice were treated with distilled water containing no araliadiol and scopolamine. • Araliadiol 1 mg/kg group: 16 ICR mice were treated with a composition containing araliadiol (1 mg of araliadiol per 1 kg of mouse body weight per day: 1 mg/kg/day) and scopolamine. • Araliadiol […]: A group of 16 ICR mice that received a composition containing araliadiol (10 mg of araliadiol per kg of mouse body weight per day: 10 mg/kg/day) and a dose of SCOPE.
The Y-shaped maze device shown in FIG. 11 (made of gray acrylic: 40 cm long×10 cm wide×12 cm high) was used to conduct the Y-shaped maze test. In the Y-shaped maze test, mice were allowed to explore in the device, and the spontaneous alternations observed during the exploratory behavior were evaluated as short-term memory. The mice were placed at the tip of one of the three arms of the Y-shaped maze, allowed to explore freely in the maze for 8 minutes, and the arms they entered were recorded in order. The number of times for the mouse to enter each arm (total number of arm entries) and the number of combinations of consecutive entries into three different arms (number of alternation behaviors) were examined during the measurement period (8 minutes). The alternation behavior (%) was calculated from the following formula and used as an index of short-term memory.
Alternating behavior (%)=number of alternating actions/(total number of arm entries−2)×100

[2] = test system: human breast cancer cell line (MCF-7); details: MCF-7, Non-patent literature 1; cited from earlier work

Q: For `C=C[C@H](O)C#CC#C[C@H](O)/C=C\CCCCC` [Araliadiol, 3(S),8(R)-pentadeca-1,9(Z)-diene-4,6-diyne-3,8-diol], which “Alternating behavior (%)” value ([1]; 1 mg/kg/day oral for 7 days) is on record?
A: 50.87%

Q: What about the “Alternating behavior (%)” value ([1]; 1 mg/kg/day oral for 7 days, listed as araliadiol) of the same compound?
A: increase in the rate of alternation behavior

Q: And the “Alternating behavior (%)” value ([1]; 10 mg/kg/day oral for 7 days)?
A: 53.18(*) %

Q: And the “Alternating behavior (%)” value ([1]; 10 mg/kg/day oral for 7 days, listed as araliadiol)?
A: improvement in the rate of alternating behavior

Q: What about the cell cycle [2] of the same compound?
A: arrest the cell cycle

Q: What about the proliferation [2] of the same compound?
A: inhibit the proliferation
